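Following 48 hours of exposure in 96-well plates, responses at five concentrations were used to interpolate endpoints linearly. At the TGI there is no net growth.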
Legend:
Assay in all cases: NCI tumour cell line growth inhibition, 48 h
[1] = test system: COLO 205 colon
[2] = test system: M19-MEL melanoma
[3] = test system: OVCAR-4 ovarian
[4] = test system: SN12K1 renal
[5] = test system: NCI-H226 lung
[6] = test system: K-562 leukemia
[7] = test system: OVCAR-8 ovarian
[8] = test system: DLD-1 colon
[9] = test system: HCT-116 colon
[10] = test system: IGROV1 ovarian
[11] = test system: NCI-H522 lung
[12] = test system: HCC-2998 colon
[13] = test system: HOP-92 NSCLC
[14] = test system: SNB-78 CNS
[15] = test system: SF-539 CNS
[16] = test system: NCI-H460 lung
[17] = test system: SK-MEL-28 melanoma
[18] = test system: KM20L2 colon
[19] = test system: UO-31 renal
[20] = test system: RXF 393 renal
[21] = test system: DMS 273 small cell lung
[22] = test system: LOX IMVI melanoma
[23] = test system: HOP-62 NSCLC
[24] = test system: SK-MEL-2 melanoma
[25] = test system: A498 renal
[26] = test system: MCF7 breast
[27] = test system: CCRF-CEM leukemia
[28] = test system: KM12 colon
[29] = test system: HOP-18 NSCLC
[30] = test system: DMS 114 small cell lung
[31] = test system: NCI/ADR-RES ovarian
[32] = test system: SW-620 colon
[33] = test system: UACC-257 melanoma
[34] = test system: MOLT-4 leukemia
[35] = test system: U251 CNS
[36] = test system: RPMI-8226 leukemia
[37] = test system: HCT-15 colon
[38] = test system: OVCAR-5 ovarian
[39] = test system: EKVX NSCLC
[40] = test system: XF 498 CNS
[41] = test system: SK-MEL-5 melanoma
[42] = test system: HL-60(TB) leukemia
[43] = test system: P388 leukemia
[44] = test system: OVCAR-3 ovarian
[45] = test system: MALME-3M melanoma
[46] = test system: HT29 colon
[47] = test system: SK-OV-3 ovarian
[48] = test system: CAKI-1 renal
[49] = test system: SNB-19 CNS
[50] = test system: A549 NSCLC
[51] = test system: UACC-62 melanoma
[52] = test system: SF-268 CNS
[53] = test system: SN12C renal
[54] = test system: NCI-H23 lung
[55] = test system: SNB-75 CNS
[56] = test system: P388/ADR leukemia
[57] = test system: SF-295 CNS

With C(=C/c1nc2ccccc2o1)/c1ccc2c(c1)OCO2 the TGI [1] was greater than 100 µM, the TGI [2] was greater than 100 µM and the TGI [3] was 44.6 µM. It also gave a TGI [4] of 42 µM, a TGI [5] of 55.2 µM and a TGI [6] greater than 65.3 µM. It also gave a TGI [7] greater than 100 µM, a TGI [8] greater than 100 µM and a TGI [9] of 33.3 µM. It also gave a TGI [10] greater than 83 µM, a TGI [11] of 51.3 µM and a TGI [12] greater than 70.8 µM. The TGI [13] was 69.7 µM, the TGI [14] was 90.6 µM and the TGI [15] was 34.6 µM. It also gave a TGI [16] greater than 100 µM, a TGI [17] greater than 100 µM and a TGI [18] greater than 53 µM. The TGI [19] was 49.5 µM, the TGI [20] was 41.9 µM and the TGI [21] was greater than 37.5 µM. The TGI [22] was greater than 47.8 µM, the TGI [23] was 45.7 µM and the TGI [24] was 36.3 µM. The TGI [25] was 56.8 µM, the TGI [26] was greater than 79.8 µM and the TGI [27] was greater than 100 µM. For the same molecule, the TGI [28] was 26.1 µM, the TGI [29] was 60.8 µM and the TGI [30] was greater than 100 µM. The TGI [31] was 39.5 µM, the TGI [32] was greater than 100 µM and the TGI [33] was greater than 100 µM. The TGI [34] was greater than 100 µM, the TGI [35] was 42.1 µM and the TGI [36] was greater than 100 µM. For the same molecule, the TGI [37] was greater than 100 µM, the TGI [38] was greater than 100 µM and the TGI [39] was greater than 100 µM. For the same molecule, the TGI [40] was 48.8 µM, the TGI [41] was 56.6 µM and the TGI [42] was greater than 96.5 µM. It also gave a TGI [43] greater than 35.8 µM, a TGI [44] of 29.1 µM and a TGI [45] greater than 95.9 µM. For the same molecule, the TGI [46] was greater than 81.8 µM, the TGI [47] was 53.1 µM and the TGI [48] was 40 µM. It also gave a TGI [49] of 38.6 µM, a TGI [50] greater than 81.4 µM and a TGI [51] greater than 45.5 µM. For the same molecule, the TGI [52] was greater than 100 µM, the TGI [53] was greater than 100 µM and the TGI [54] was greater than 100 µM. For the same molecule, the TGI [55] was greater than 63.8 µM, the TGI [56] was greater than 43.7 µM and the TGI [57] was 23.1 µM.

— PubChem BioAssay (NCI)
